Counter-ions that a name gives are not always drawn.
Columns and labels:
Down's syndrome = conditions: in vivo; cited from earlier work
[1] = Blood concentration in the patient with rapid retrogression; conditions: human, in vivo; 2 mg/day oral, house visit after 2 months
Description: It was confirmed that the subject was spontaneously getting up in the morning with extreme regularity. In addition, in daily activities the patient was sorting laundry, and before administration could not fold one piece in 30 minutes, but after administration could process 10 to 20 pieces in 10 minutes, and was approaching the level prior to the symptoms of rapid retrogression. Furthermore, the patient was able to spontaneously take medicine without the instruction of a parent. […] The blood concentration was 13.7 ng/mL.

[2] = tested on: Down's syndrome model mouse; conditions: cited from earlier work
[3] = tested on: human children with Down's syndrome; conditions: 25 human children with Down's syndrome; cited from earlier work

In the case of `N[C@@H](Cc1c[nH]c2ccc(O)cc12)C(=O)O` [5-hydroxytryptophan], the “Development of motor skills, language skills, intelligence, or socialization” value (Down's syndrome) is listed as “no efficacy was seen”.

With `COc1cc2c(cc1OC)C(=O)C(CC1CCN(Cc3ccccc3)CC1)C2` (stereo not shown) [donepezil hydrochloride] the concentration at 2 months [1] was 13.7 ng/mL.

In the case of `NC(=O)CN1CCCC1=O` [piracetam], the Cognitive function [2] is listed as “an effect in improving cognitive function was seen” and the Cognitive function [3] is listed as “no improvement in cognitive function was seen”.

— US20070054940A1, “Remedy for down's syndrome” (EISAI CO., LTD., priority 2003, published 2007)
